The values that follow come from US7402696B2, “Benzene compounds” (Ajinomoto Co., Inc., priority 2004, dated 2008).

Usually inhibition stands for the percentage by which the read-out fell short of the control.

Structures are written as SMILES.

The first assay has as its target T1, ACC (acetyl CoA carboxylase) purified from liver of male SD rat (Rattus norvegicus, UniProt P11497).
T1 construct: applied to a monomeric avidin sepharose column, and washed with buffer B. The ACC was eluted with buffer B containing 2 mM d-biotin; from tissue; host or cells: liver of male SD rat
Kind of assay: Measurement of ACC inhibition activity ([14C]-NaHCO3 incorporation). The format is biochemical. As to conditions: ACC inhibition activity rate at 1 μM; Table 2-III, Mode 3 acetylene/oxadiazole/thiazole compounds (numbers = x-III); read-out: ACC Inhibition (%). In a few lines:
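Enzyme was avidin-purified from livers of rats fasted and then sucrose-fed. Compounds were preincubated with ACC for 30 min at 37° C in Tris-HCl pH 7.5 with MgCl2, citrate and DTT. [14C]-NaHCO3 solution with 8 mM ATP and 0.5 mM acetyl CoA was added for 10 min at 37° C. Acid-stable 14C gave % inhibition at 1 μM.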
For the molecule `CC(C)c1ccc(S(=O)(=O)NC(=O)c2ccc(-c3nc(-c4ccc(-c5csc(-c6ccc(C(F)(F)F)cc6)n5)cc4)no3)cc2)cc1` [compound 107], the inhibition at 1 µM is 100%. On the same count and under the same terms, the value for `CC(C)c1ccc(S(=O)(=O)NC(=O)c2ccc3c(c2)CN(c2cccc(-c4csc(-c5ccccc5)n4)c2)C3)cc1` [compound 118] was 60%; that for `CC(C)c1ccc(S(=O)(=O)NC(=O)C(Cc2ccccc2)NC(=O)Nc2ccc(-c3csc(-c4ccccc4)n3)cc2)cc1` (stereo not shown) [compound 130] was 88%.

The same assay, now with this note: ACC inhibition activity rate at 1 μM; Table 3-I, Mode 1 quinoline compounds (numbers = x-I); read-out: ACC Inhibition (%).
Take `CCCCCC(=O)NS(=O)(=O)c1ccccc1NC(=O)c1ccc2nc(-c3cc(C(F)(F)F)ccc3F)ccc2c1` [compound 107]: the inhibition at 1 µM was determined as 90%. For `CCCCCC(=O)NS(=O)(=O)c1ccccc1NC(=O)c1ccc2nc(-c3cccc(SC(F)(F)F)c3)ccc2c1` [compound 109], the inhibition at 1 µM amounted to 61%. Take `CCCCCC(=O)NS(=O)(=O)c1ccccc1NC(=O)c1ccc2nc(-c3cccc(C(F)(F)F)c3F)ccc2c1` [compound 110]: the inhibition at 1 µM was determined as 50%. Same read-out and setting: as for `CC(C)c1ccc(S(=O)(=O)NC(=O)c2ccccc2-c2csc(-c3ccc4nc(-c5cc(C(F)(F)F)cc(C(F)(F)F)c5)ccc4c3)n2)cc1` [compound 115], the figure is 97%.

The same assay, now with this note: ACC inhibition activity rate at 1 μM; Table 4-IV, Mode 4 benzenediamine compounds (numbers = x-IV); read-out: ACC Inhibition (%).
Take `Cc1ccccc1S(=O)(=O)NC(=O)c1cccc(-c2nc(-c3ccc(N(C)CCC(C)C)c(NC(C)c4ccccc4)c3)no2)c1` (stereo not shown) [compound 107]: the inhibition at 1 µM was 100%. As for `CC(C)CCN(C)c1ccc(C(=O)NC(CC(=O)NS(=O)(=O)c2ccccc2)c2ccccc2)cc1NCc1ccccc1` (stereo not shown) [compound 112], the inhibition at 1 µM is 75%. Take `CC(C)CCN(C)c1ccc(-c2noc(-c3cccc(C(=O)NS(=O)(=O)c4ccccc4)c3)n2)cc1NCc1ccc(OCCO)cc1` [compound 113]: the inhibition at 1 µM was 97%.

Turning to `CC(C)CCN(C)c1ccc(-c2noc(-c3cccc(C(=O)NS(=O)(=O)c4ccccc4)c3)n2)cc1NCc1cc(O)cc(O)c1` [compound 114], the inhibition at 1 µM is 77%.

For `CSc1ccccc1CNc1cc(-c2noc(-c3cccc(C(=O)NS(=O)(=O)c4ccccc4)c3)n2)ccc1N(C)CCC(C)C` [compound 115], the inhibition at 1 µM was 100%.

Consider `Cc1ccccc1S(=O)(=O)NC(=O)CC(NC(=O)c1ccc(N(C)CCC(C)C)c(N(C)Cc2ccccc2)c1)C1CCCCC1` (stereo not shown) [compound 118], for which the inhibition at 1 µM stood at 93%. On the same count and under the same terms, as for `Cc1ccccc1S(=O)(=O)NC(=O)CC(NC(=O)c1ccc(N(C)CCC(C)C)c(N(C)CC2CCCCC2)c1)C1CCCCC1` (stereo not shown) [compound 119], the figure is 94%; as for `CC(C)CCN(C)c1ccc(C(=O)NC(CC(=O)NS(=O)(=O)c2ccccc2)c2ccccc2)cc1N(C)Cc1ccccc1` (stereo not shown) [compound 121], 90%; as for `Cc1ccccc1S(=O)(=O)NC(=O)CC(NC(=O)c1ccc(N(C)CCC(C)C)c(NCc2ccccc2O)c1)C1CCCCC1` (stereo not shown) [compound 122], 67%. As for `Cc1ccccc1S(=O)(=O)NC(=O)CC(NC(=O)c1ccc(N(C)CCC(C)C)c(NCc2ccccc2[N+](=O)[O-])c1)C1CCCCC1` (stereo not shown) [compound 124], the inhibition at 1 µM turned out to be 64%. For the molecule `Cc1ccccc1S(=O)(=O)NC(=O)CC(NC(=O)c1ccc(N(C)CCC(C)C)c(NCCc2ccccc2)c1)C1CCCCC1` (stereo not shown) [compound 125], the inhibition at 1 µM is 98%.

In the case of `Cc1ccccc1S(=O)(=O)NC(=O)CC(NC(=O)c1ccc(N(C)CCC(C)C)c(NCC2CCCC2)c1)C1CCCCC1` (stereo not shown) [compound 126], the inhibition at 1 µM was determined as 91%. As to `Cc1ccccc1S(=O)(=O)NC(=O)c1cccc(-c2nc(-c3ccc(N(C)CCC(C)C)c(N4Cc5ccccc5C4=O)c3)no2)c1` [compound 127], the inhibition at 1 µM was 92%.

`Cc1ccccc1S(=O)(=O)NC(=O)c1cccc(-c2nc(-c3ccc(N(C)CCC(C)C)c(N4COc5ccccc5C4)c3)no2)c1` [compound 128]: the inhibition at 1 µM was 100%.

For `Cc1ccccc1S(=O)(=O)NC(=O)c1cccc(-c2nc(-c3ccc(N(C)CCC(C)C)c(NCc4ccccc4[N+](=O)[O-])c3)no2)c1` [compound 129], the inhibition at 1 µM amounted to 100%.
